Active and inactive are the calls of the source. No rule for the calls is given here.
System: rodent lifetime carcinogenesis bioassay, tumor incidence TD50
Assay: carcinogenic potency in animals, long-term in vivo studies, CPDB compilation (AID 1745844)
[1] = mouse, strain B6AKF1, females, oral dosing, site: any site (literature study), lesion: several types, types named in the paper, dosed 76 weeks, study length 76 weeks
[2] = mouse, strain B6AKF1, females, oral dosing, site: lung, lesion: adenoma, dosed 76 weeks, study length 76 weeks
[3] = mouse, strain B6AKF1, males, oral dosing, site: lung, lesion: adenoma, dosed 76 weeks, study length 76 weeks
[4] = mouse, strain B6C3F1, males, oral dosing, site: any site (literature study), lesion: several types, types named in the paper, dosed 76 weeks, study length 76 weeks

Work on `O=[N+]([O-])c1cc([N+](=O)[O-])c(Cl)c(Cl)c1Cl` yielded a TD50 [1] of 52.6 mg/kg/day, a TD50 [2] of 108 mg/kg/day and a TD50 [3] of 49 mg/kg/day. The TD50 [4] was 19.8 mg/kg/day.
`NNC=O` showed a TD50 (mouse, strain Swiss albino, females, in drinking water, site: liver, lesion: several types, types named in the paper, dosed 83 weeks, study length 83 weeks) of 6860 mg/kg/day, a TD50 (mouse, strain Swiss albino, females, in drinking water, site: lung, lesion: several types, types named in the paper, dosed 83 weeks, study length 83 weeks) of 36 mg/kg/day and a TD50 (mouse, strain Swiss albino, males, in drinking water, site: liver, lesion: several types, types named in the paper, dosed 83 weeks, study length 83 weeks) of 1150 mg/kg/day. The carcinogen call (mouse, strain Swiss albino, males, in drinking water, site: lung, lesion: several types, types named in the paper, dosed 83 weeks, study length 83 weeks) was “positive”.
With `CC(=O)Nc1ccc2c(c1)C(=O)c1ccccc1-2` the TD50 (rat, strain Buffalo, females, in feed, site: ear duct, lesion: squamous-cell carcinoma, dosed 86 weeks, study length 86 weeks) was 32 mg/kg/day, the TD50 (rat, strain Buffalo, females, in feed, site: liver, lesion: hepatoma, dosed 86 weeks, study length 86 weeks) was 102 mg/kg/day and the TD50 (rat, strain Buffalo, females, in feed, site: mammary gland, lesion: adenocarcinoma, dosed 86 weeks, study length 86 weeks) was 6.17 mg/kg/day.
Molecule `NC(=O)CCCCn1ccc(NC(N)=NCC(F)(F)F)n1` has a TD50 (mouse, strain B6C3F1, females, in feed, site: gastric mucosa, lesion: carcinoid tumor, malignant, dosed 91 weeks, study length 91 weeks) of 956 mg/kg/day, a TD50 (mouse, strain B6C3F1, males, in feed, site: gastric mucosa, lesion: carcinoid tumor, malignant, dosed 91 weeks, study length 91 weeks) of 401 mg/kg/day and a TD50 (rat, strain Sprague-Dawley, females, in feed, site: gastric mucosa, lesion: carcinoid tumor, malignant, dosed 104 weeks, study length 104 weeks) of 1350 mg/kg/day. The TD50 (rat, strain Sprague-Dawley, males, in feed, site: gastric mucosa, lesion: carcinoid tumor, malignant, dosed 104 weeks, study length 104 weeks) was 1030 mg/kg/day.
`CCN=[N+](C)[O-]` showed a TD50 (rat, strain Fischer 344, males, in drinking water, site: kidney, lesion: several types, types named in the paper, dosed 30 weeks, study length 95 weeks) of 123 mg/kg/day, a TD50 (rat, strain Fischer 344, males, in drinking water, site: liver, lesion: hemangiosarcoma, dosed 30 weeks, study length 95 weeks) of 302 mg/kg/day and a TD50 (rat, strain Fischer 344, males, in drinking water, site: liver, lesion: hepatocellular carcinoma, dosed 30 weeks, study length 95 weeks) of 18.2 mg/kg/day. The TD50 (rat, strain Fischer 344, males, in drinking water, site: liver, lesion: neoplastic nodule, dosed 30 weeks, study length 95 weeks) was 664 mg/kg/day and the TD50 (rat, strain Fischer 344, males, in drinking water, site: liver, lesion: several types, types named in the paper, dosed 30 weeks, study length 95 weeks) was 11.5 mg/kg/day.
`NNC(=O)c1cccnc1` was tested, and the carcinogen call (mouse, strain Swiss albino, females, in drinking water, site: liver, lesion: angioma, dosed 102 weeks, study length 102 weeks) was “negative (inactive)”, the carcinogen call (mouse, strain Swiss albino, females, in drinking water, site: liver, lesion: angiosarcoma, dosed 102 weeks, study length 102 weeks) was “negative (inactive)” and the TD50 (mouse, strain Swiss albino, females, in drinking water, site: lung, lesion: adenocarcinoma, dosed 102 weeks, study length 102 weeks) was 511 mg/kg/day. The TD50 (mouse, strain Swiss albino, females, in drinking water, site: lung, lesion: adenoma, dosed 102 weeks, study length 102 weeks) was 181 mg/kg/day, the TD50 (mouse, strain Swiss albino, females, in drinking water, site: lung, lesion: several types, types named in the paper, dosed 102 weeks, study length 102 weeks) was 145 mg/kg/day and the carcinogen call (mouse, strain Swiss albino, males, in drinking water, site: liver, lesion: angioma, dosed 101 weeks, study length 101 weeks) was “negative (inactive)”. The carcinogen call (mouse, strain Swiss albino, males, in drinking water, site: liver, lesion: angiosarcoma, dosed 101 weeks, study length 101 weeks) was “negative (inactive)”, the TD50 (mouse, strain Swiss albino, males, in drinking water, site: liver, lesion: hepatoma, dosed 101 weeks, study length 101 weeks) was 1410 mg/kg/day (inactive) and the TD50 (mouse, strain Swiss albino, males, in drinking water, site: lung, lesion: adenoma, dosed 101 weeks, study length 101 weeks) was 428 mg/kg/day. The TD50 (mouse, strain Swiss albino, males, in drinking water, site: lung, lesion: several types, types named in the paper, dosed 101 weeks, study length 101 weeks) was 528 mg/kg/day.
`CC(=O)Nc1nnc(-c2ccc([N+](=O)[O-])o2)s1` was tested, and the TD50 (mouse, strain Swiss, females, in feed, site: any site (literature study), lesion: several types, types named in the paper, dosed 46 weeks, study length 55 weeks) was 6.9 mg/kg/day, the TD50 (mouse, strain Swiss, females, in feed, site: forestomach, lesion: several types, types named in the paper, dosed 46 weeks, study length 55 weeks) was 6.74 mg/kg/day and the TD50 (mouse, strain Swiss, females, in feed, site: forestomach, lesion: squamous-cell carcinoma, dosed 46 weeks, study length 55 weeks) was 104 mg/kg/day. It also gave a TD50 (mouse, strain Swiss, females, in feed, site: forestomach, lesion: squamous-cell papilloma, dosed 46 weeks, study length 55 weeks) of 14.1 mg/kg/day, a TD50 (rat, strain Sprague-Dawley, females, in feed, site: all sites, lesion: lymphoblastic lymphoma, dosed 40 weeks, study length 59 weeks) of 111 mg/kg/day and a TD50 (rat, strain Sprague-Dawley, females, in feed, site: forestomach, lesion: several types, types named in the paper, dosed 40 weeks, study length 59 weeks) of 8.84 mg/kg/day. For the same molecule, the TD50 (rat, strain Sprague-Dawley, females, in feed, site: forestomach, lesion: squamous-cell papilloma, dosed 40 weeks, study length 59 weeks) was 11.6 mg/kg/day, the TD50 (rat, strain Sprague-Dawley, females, in feed, site: intestine, lesion: hemangioendothelial sarcoma, dosed 40 weeks, study length 59 weeks) was 18.6 mg/kg/day and the TD50 (rat, strain Sprague-Dawley, females, in feed, site: kidney/pelvis, lesion: transitional-cell carcinoma, dosed 40 weeks, study length 59 weeks) was 16.9 mg/kg/day. For the same molecule, the TD50 (rat, strain Sprague-Dawley, females, in feed, site: liver, lesion: hemangioendothelial sarcoma, dosed 40 weeks, study length 59 weeks) was 22.9 mg/kg/day, the TD50 (rat, strain Sprague-Dawley, females, in feed, site: lung, lesion: alveolar-cell carcinoma, dosed 40 weeks, study length 59 weeks) was 15.3 mg/kg/day and the TD50 (rat, strain Sprague-Dawley, females, in feed, site: lung, lesion: hemangioendothelial sarcoma, dosed 40 weeks, study length 59 weeks) was 52.3 mg/kg/day. It also gave a TD50 (rat, strain Sprague-Dawley, females, in feed, site: mammary gland, lesion: adenocarcinoma, dosed 40 weeks, study length 59 weeks) of 37.7 mg/kg/day, a TD50 (rat, strain Sprague-Dawley, females, in feed, site: mammary gland, lesion: several types, types named in the paper, dosed 40 weeks, study length 59 weeks) of 43.3 mg/kg/day and a TD50 (rat, strain Sprague-Dawley, females, in feed, site: pancreas, lesion: hemangioendothelial sarcoma, dosed 40 weeks, study length 59 weeks) of 81.6 mg/kg/day. The TD50 (rat, strain Sprague-Dawley, females, in feed, site: several sites, sites named in the paper, lesion: hemangioendothelial sarcoma, dosed 40 weeks, study length 59 weeks) was 10.6 mg/kg/day, the TD50 (rat, strain Sprague-Dawley, females, in feed, site: small intestine, lesion: adenocarcinoma, dosed 40 weeks, study length 59 weeks) was 111 mg/kg/day and the TD50 (rat, strain Sprague-Dawley, females, in feed, site: small intestine, lesion: leiomyosarcoma, dosed 40 weeks, study length 59 weeks) was 111 mg/kg/day.
With `O=C(O)C1C2C=CC(C2)C1(C(=O)O)[N+](=O)[O-]` (stereo not given) the TD50 (mouse, strain B6C3F1, females, in drinking water, site: any site (literature study), lesion: several types, types named in the paper, dosed 104 weeks, study length 104 weeks) was 169 mg/kg/day, the TD50 (mouse, strain B6C3F1, females, in drinking water, site: liver, lesion: hemangioma, dosed 104 weeks, study length 104 weeks) was 1240 mg/kg/day and the TD50 (mouse, strain B6C3F1, females, in drinking water, site: liver, lesion: hyperplastic nodule, dosed 104 weeks, study length 104 weeks) was 3190 mg/kg/day. The TD50 (mouse, strain B6C3F1, females, in drinking water, site: lung, lesion: papillary tumor, dosed 104 weeks, study length 104 weeks) was 5650 mg/kg/day, the TD50 (mouse, strain B6C3F1, males, in drinking water, site: any site (literature study), lesion: several types, types named in the paper, dosed 104 weeks, study length 104 weeks) was 153 mg/kg/day and the TD50 (mouse, strain B6C3F1, males, in drinking water, site: liver, lesion: hepatoma, dosed 104 weeks, study length 104 weeks) was 2640 mg/kg/day. The TD50 (mouse, strain B6C3F1, males, in drinking water, site: lung, lesion: papillary tumor, dosed 104 weeks, study length 104 weeks) was 348 mg/kg/day.
In the case of `c1ccc2sc(SSc3nc4ccccc4s3)nc2c1`, the TD50 [1] is reported as 1380 mg/kg/day (inactive), the carcinogen call (mouse, strain B6AKF1, females, oral dosing, site: liver, lesion: hepatoma, dosed 76 weeks, study length 76 weeks) is reported as “negative (inactive)” and the carcinogen call [2] is reported as “negative (inactive)”. The TD50 (mouse, strain B6AKF1, males, oral dosing, site: any site (literature study), lesion: several types, types named in the paper, dosed 76 weeks, study length 76 weeks) was 511 mg/kg/day (inactive), the carcinogen call (mouse, strain B6AKF1, males, oral dosing, site: liver, lesion: hepatoma, dosed 76 weeks, study length 76 weeks) was “negative (inactive)” and the TD50 [3] was 1130 mg/kg/day (inactive). The TD50 (mouse, strain B6C3F1, females, oral dosing, site: any site (literature study), lesion: several types, types named in the paper, dosed 76 weeks, study length 76 weeks) was 432 mg/kg/day (inactive), the carcinogen call (mouse, strain B6C3F1, females, oral dosing, site: liver, lesion: hepatoma, dosed 76 weeks, study length 76 weeks) was “negative (inactive)” and the TD50 (mouse, strain B6C3F1, females, oral dosing, site: lung, lesion: adenoma, dosed 76 weeks, study length 76 weeks) was 669 mg/kg/day (inactive). The TD50 [4] was 401 mg/kg/day (inactive), the TD50 (mouse, strain B6C3F1, males, oral dosing, site: liver, lesion: hepatoma, dosed 76 weeks, study length 76 weeks) was 621 mg/kg/day (inactive) and the carcinogen call (mouse, strain B6C3F1, males, oral dosing, site: lung, lesion: several types, types named in the paper, dosed 76 weeks, study length 76 weeks) was “negative (inactive)”.
For `[O]=[Cr][O][Cr]=[O]`, the carcinogen call (rat, strain BD, both sexes, in feed, site: hypophysis, lesion: adenoma, dosed 85 weeks, study length 187 weeks) was “negative (inactive)”, the carcinogen call (rat, strain BD, both sexes, in feed, site: mammary gland, lesion: carcinoma, dosed 85 weeks, study length 187 weeks) was “negative (inactive)” and the TD50 (rat, strain BD, both sexes, in feed, site: mammary gland, lesion: fibroadenoma, dosed 85 weeks, study length 187 weeks) was 237000 mg/kg/day (inactive).
Work on `CCCCN(N)CCCC` yielded a TD50 (mouse, strain Swiss albino, females, in drinking water, site: forestomach, lesion: several types, types named in the paper, dosed 109 weeks, study length 109 weeks) of 71.5 mg/kg/day, a TD50 (mouse, strain Swiss albino, females, in drinking water, site: forestomach, lesion: squamous-cell carcinoma, dosed 109 weeks, study length 109 weeks) of 152 mg/kg/day and a TD50 (mouse, strain Swiss albino, females, in drinking water, site: forestomach, lesion: squamous-cell papilloma, dosed 109 weeks, study length 109 weeks) of 95.9 mg/kg/day. The carcinogen call (mouse, strain Swiss albino, females, in drinking water, site: liver, lesion: angioma, dosed 109 weeks, study length 109 weeks) was “negative (inactive)”, the TD50 (mouse, strain Swiss albino, females, in drinking water, site: lung, lesion: adenocarcinoma, dosed 109 weeks, study length 109 weeks) was 133 mg/kg/day and the TD50 (mouse, strain Swiss albino, females, in drinking water, site: lung, lesion: adenoma, dosed 109 weeks, study length 109 weeks) was 51.5 mg/kg/day. The TD50 (mouse, strain Swiss albino, females, in drinking water, site: lung, lesion: several types, types named in the paper, dosed 109 weeks, study length 109 weeks) was 55.5 mg/kg/day, the TD50 (mouse, strain Swiss albino, males, in drinking water, site: forestomach, lesion: several types, types named in the paper, dosed 109 weeks, study length 109 weeks) was 84.2 mg/kg/day and the TD50 (mouse, strain Swiss albino, males, in drinking water, site: forestomach, lesion: squamous-cell carcinoma, dosed 109 weeks, study length 109 weeks) was 317 mg/kg/day. The TD50 (mouse, strain Swiss albino, males, in drinking water, site: forestomach, lesion: squamous-cell papilloma, dosed 109 weeks, study length 109 weeks) was 109 mg/kg/day, the TD50 (mouse, strain Swiss albino, males, in drinking water, site: liver, lesion: hepatoma, benign, dosed 109 weeks, study length 109 weeks) was 189 mg/kg/day and the TD50 (mouse, strain Swiss albino, males, in drinking water, site: liver, lesion: several types, types named in the paper, dosed 109 weeks, study length 109 weeks) was 105 mg/kg/day. It also gave a TD50 (mouse, strain Swiss albino, males, in drinking water, site: lung, lesion: adenocarcinoma, dosed 109 weeks, study length 109 weeks) of 82.3 mg/kg/day, a TD50 (mouse, strain Swiss albino, males, in drinking water, site: lung, lesion: adenoma, dosed 109 weeks, study length 109 weeks) of 44.9 mg/kg/day and a TD50 (mouse, strain Swiss albino, males, in drinking water, site: lung, lesion: several types, types named in the paper, dosed 109 weeks, study length 109 weeks) of 38.1 mg/kg/day.
